Biological target: T1, BCL6 (Homo sapiens, UniProt P41182)
T1 construct: endogenous in cells; host or cells: T47D breast cancer epithelial cells
Assay: Immunofluorescence high content imaging of BCL6 degradation in T47D cells
Format: cell-based
Conditions: T47D breast cancer epithelial cells, 3 days incubation
Method: Immunofluorescence Protocol for High Content Imaging of BCL6
T47D cells were seeded in 100 μl volume of RPMI11640-10% FBS in a 96-well black/clear bottom plates for adherent lines (Corning #3904).
Day 1. T47D breast cancer epithelial cells were seeded at a density so that confluence is ˜70-90% at endpoint. Cells were seeded at 7K/0.1 mL/well the morning prior to the addition of exemplary bifunctional degradation compounds.
Day 2. Prepare an 11 point 3-fold serial dilution of exemplary bifunctional compound in DMSO and aliquot an appropriate volume to cell growth media to generate a 2× final concentration of exemplary bifunctional compound. Add an equal volume (0.1 ml) of 2× exemplary bifunctional compound/media mix to previously plated cells, for a final top concentration in aqueous cell growth media of 0.1 or 1 μM. Incubate for 3 days at 37° C., 5% CO2.
Day 5 Immunofluorescence. Discard cell media. Wash wells with 200 μl of room temperature phosphate-buffered saline (PBS). Prepared 4% paraformaldehyde (PFA) from 16% PFA (Electron Microscopy Sciences #15710) using 1×PBS. Fifty μL of 4% PF was added to each well and incubate for 15 minutes at room temperature to fix the cells. The PFA was aspirated and the cells washed twice with PBS (200 μL)).
Prepared 0.1% Triton X-100 in PBS using 10% triton X-100 stock. The cells were permeabilized by adding 100 μL of the 0.1% Triton X-100 in PBS to each well to permeabilize cells and incubating at room temperature for 15 minutes. Cells were washed twice with PBS.
Prepared 3% BSA/PBS (from Thermofisher #37515 Blocker BSA in TBS, 10%), and 100 μL was added to each well. The cells were incubated for at least 1 hour at room temperature.
Prepared 1% BSA/PBS using Blocker BSA/PBS, and the 3% BSA/PBS removed from the wells.
For no primary antibody controls, 50 μL 1% BSA/PBS was added.
Primary antibody (BCL6 Rb Ab, CST-14895, Cell Signaling) was diluted 1:300 in 1% BSA/PBS using Blocker BSA/PBS.
Fifty μl of primary antibody added to all remaining wells (i.e., all wells other than the primary antibody controls) and the cells were incubated overnight at 4° C. with slow orbital movement.
Day 6. Contents of the wells was removed and the cells washed four times with 200 μL PBS. 1% BSA/PBS was prepared using Blocker BSA in PBS.
Diluted secondary antibody goat anti-Rb IgG Alexa-488 1:1000, and cell mask-Alexa-647 1:3000 in 1% BSA/PBS in the same mix. Add 50 μL to each well and incubate at room temperature for 1 hour in the dark.
Cells were washed three times with 200 μL PBS, and then incubated for 10 minutes with 100 μL Hoechst dye at 1 μg/mL (20 mM stock) to stain cell nuclei. Wells were then washed with 200 μl PBS, and 100 μL of PBS was added to each well and the plate covered plate with a plastic opaque cover. Plates were stored at […] and covered in aluminum foil until imaged.
Plates were equilibrated to room temperature prior to reading. The bottom of the plate was wiped with 70% isopropanol immediately prior to imaging.
Imaging: • 10×, 4 fields/well, include Top hat smoothing in the analysis protocol.
Supplies/Reagents: • 16% paraformaldehyde: Electron Microscopy Sciences #15710 • Hoechst: Thermofisher #62249 • Blocker BSA in PBS, 10%: Thermofisher #37515 • Blocker BSA in TBS, 10%: Thermofisher #37520 • Goat anti-rabbit or mouse AlexaFluor-488: Thermofisher #A11008 • Cell mask deep red AlexaFluor-647: Thermofisher #C10046 • Wash buffer, PBS: 20×PBS, Thermofisher

Structure (SMILES)	DC50 [nM]	Dmax [%]
CNC(=O)COc1cc2cc(Nc3nc(N4CCC(O[C@H]5C[C@H](N6CCN(c7ccc8c(c7)n(C)c(=O)n8C7CCC(=O)NC7=O)[C@@H](C)C6)C5)CC4)ncc3Cl)ccc2n(C(C)C)c1=O (stereo partly drawn) [Compound 18, 2-({6-[(5-chloro-2-{4-[(1r,3r)-3-[(3S)-4-[1-(2,6-dioxopiperidin-3-yl)-3-methyl-2-oxo-2,3-dihydro-1H-1,3-benzodiazol-5-yl]-3-methylpiperazin-1-yl]cyclobutoxy]piperidin-1-yl}pyrimidin-4-yl)amino]-2-oxo-1-(propan-2-yl)-1,2-dihydroquinolin-3-yl}oxy)-N-methylacetamide]	< 10	≥ 70
CNC(=O)COc1cc2cc(Nc3nc(N4CCC(O[C@H]5C[C@H](N6CCN(c7ccc8c(c7)n(C7CCC(=O)NC7=O)c(=O)n8C)CC6)C5)CC4)ncc3Cl)ccc2n(C(C)C)c1=O (stereo partly drawn) [Compound 11, 2-({6-[(5-chloro-2-{4-[(1r,3r)-3-{4-[3-(2,6-dioxopiperidin-3-yl)-1-methyl-2-oxo-2,3-dihydro-1H-1,3-benzodiazol-5-yl]piperazin-1-yl}cyclobutoxy]piperidin-1-yl}pyrimidin-4-yl)amino]-2-oxo-1-(propan-2-yl)-1,2-dihydroquinolin-3-yl}oxy)-N-methylacetamide]	10 to 50	< 50
CNC(=O)COc1cc2cc(Nc3nc(N4CCC(O[C@H]5C[C@H](N6CCC(c7cc(C)c8c(c7)CN(C7CCC(=O)NC7=O)C8=O)CC6)C5)CC4)ncc3Cl)ccc2n(C(C)C)c1=O (stereo partly drawn) [Compound 37, 2-({6-[(5-chloro-2-{4-[(1r,3r)-3-{4-[2-(2,6-dioxopiperidin-3-yl)-7-methyl-1-oxo-3H-isoindol-5-yl]piperidin-1-yl}cyclobutoxy]piperidin-1-yl}pyrimidin-4-yl)amino]-1-isopropyl-2-oxoquinolin-3-yl}oxy)-N-methylacetamide]	< 10	≥ 70
CNC(=O)COc1cc2cc(Nc3nc(N4CCC(O[C@H]5C[C@H](N6CCN(c7ccc8c(c7Cl)[C@H](C)N([C@H]7CCC(=O)NC7=O)C8=O)[C@H](C)C6)C5)CC4)ncc3Cl)ccc2n(C(C)C)c1=O (single isomer, unassigned) [Compound 34]	10 to 50	< 50
CNC(=O)COc1cc2cc(Nc3nc(N4CCN(C(=O)CC5(O)CCN(c6ccc7c(c6F)CN(C6CCC(=O)NC6=O)C7=O)CC5)CC4)ncc3Cl)ccc2n(C(C)C)c1=O (stereo not drawn) [Compound 40, 2-{[6-({5-chloro-2-[4-(2-{1-[2-(2,6-dioxopiperidin-3-yl)-4-fluoro-1-oxo-3H-isoindol-5-yl]-4-hydroxypiperidin-4-yl}acetyl)piperazin-1-yl]pyrimidin-4-yl}amino)-1-isopropyl-2-oxoquinolin-3-yl]oxy}-N-methylacetamide]	< 10	≥ 70
CNC(=O)COc1cc2cc(Nc3nc(N4CCC(O[C@H]5C[C@H](N6CCN(c7cc8c(cc7F)n(C7CCC(=O)NC7=O)c(=O)n8C)CC6)C5)CC4)ncc3Cl)ccc2n(C(C)C)c1=O (stereo partly drawn) [Compound 9, 2-({6-[(5-chloro-2-{4-[(1r,3r)-3-{4-[1-(2,6-dioxopiperidin-3-yl)-6-fluoro-3-methyl-2-oxo-2,3-dihydro-1H-1,3-benzodiazol-5-yl]piperazin-1-yl}cyclobutoxy]piperidin-1-yl}pyrimidin-4-yl)amino]-2-oxo-1-(propan-2-yl)-1,2-dihydroquinolin-3-yl}oxy)-N-methylacetamide]	< 10	≥ 70
CNC(=O)COc1cc2cc(Nc3nc(N4CCC(O[C@H]5C[C@H](N6CCN(c7cc(F)c8c(c7)n(C(C)C)c(=O)n8C7CCC(=O)NC7=O)CC6)C5)CC4)ncc3Cl)ccc2n(C(C)C)c1=O (stereo partly drawn) [Compound 29, 2-({6-[(5-chloro-2-{4-[(1r,3r)-3-{4-[1-(2,6-dioxopiperidin-3-yl)-7-fluoro-2-oxo-3-(propan-2-yl)-2,3-dihydro-1H-1,3-benzodiazol-5-yl]piperazin-1-yl}cyclobutoxy]piperidin-1-yl}pyrimidin-4-yl)amino]-2-oxo-1-(propan-2-yl)-1,2-dihydroquinolin-3-yl}oxy)-N-methylacetamide]	< 10	≥ 70
CNC(=O)COc1cc2cc(Nc3nc(N4CCC(O[C@H]5C[C@H](N6CCN(c7cc8c(cn7)n(C7CCC(=O)NC7=O)c(=O)n8C)CC6)C5)CC4)ncc3Cl)ccc2n(C(C)C)c1=O (stereo partly drawn) [Compound 14, 2-({6-[(5-chloro-2-{4-[(1r,3r)-3-{4-[3-(2,6-dioxopiperidin-3-yl)-1-methyl-2-oxo-1H,2H,3H-imidazo[4,5-c]pyridin-6-yl]piperazin-1-yl}cyclobutoxy]piperidin-1-yl}pyrimidin-4-yl)amino]-2-oxo-1-(propan-2-yl)-1,2-dihydroquinolin-3-yl}oxy)-N-methylacetamide]	< 10	50 to 70
CNC(=O)COc1cc2cc(Nc3nc(N4CCC(CN5CCC(N6CCN(c7ccc8c(c7F)CN(C7CCC(=O)NC7=O)C8=O)CC6)C(F)(F)C5)CC4)ncc3Cl)ccc2n(C(C)C)c1=O (stereo not drawn) [Compound 42, 2-({6-[(5-chloro-2-{4-[(4-{4-[2-(2,6-dioxopiperidin-3-yl)-4-fluoro-1-oxo-3H-isoindol-5-yl]piperazin-1-yl}-3,3-difluoropiperidin-1-yl)methyl]piperidin-1-yl}pyrimidin-4-yl)amino]-1-isopropyl-2-oxoquinolin-3-yl}oxy)-N-methylacetamide]	< 10	50 to 70
CNC(=O)COc1cc2cc(Nc3nc(N4CCC(O[C@H]5C[C@H](N6CCN(c7ccc(NC8CCC(=O)NC8=O)cc7)CC6)C5)CC4)ncc3Cl)ccc2n(C(C)C)c1=O (stereo partly drawn) [Compound 5, 2-({6-[(5-chloro-2-{4-[(1r,3r)-3-(4-{4-[(2,6-dioxopiperidin-3-yl)amino]phenyl}piperazin-1-yl)cyclobutoxy]piperidin-1-yl}pyrimidin-4-yl)amino]-2-oxo-1-(propan-2-yl)-1,2-dihydroquinolin-3-yl}oxy)-N-methylacetamide]	50 to 100	
CNC(=O)COc1cc2cc(Nc3nc(N4CCC(O[C@H]5C[C@H](N6CCN(c7cnc8c(c7)n(C)c(=O)n8C7CCC(=O)NC7=O)CC6)C5)CC4)ncc3Cl)ccc2n(C(C)C)c1=O (stereo partly drawn) [Compound 16, 2-({6-[(5-chloro-2-{4-[(1r,3r)-3-{4-[3-(2,6-dioxopiperidin-3-yl)-1-methyl-2-oxo-1H,2H,3H-imidazo[4,5-b]pyridin-6-yl]piperazin-1-yl}cyclobutoxy]piperidin-1-yl}pyrimidin-4-yl)amino]-2-oxo-1-(propan-2-yl)-1,2-dihydroquinolin-3-yl}oxy)-N-methylacetamide]	< 10	50 to 70
CNC(=O)COc1cc2cc(Nc3nc(N4CCC(O[C@H]5C[C@H](N6CCN(c7ccc8c(c7F)[C@@H](C)N([C@@H]7CCC(=O)NC7=O)C8=O)[C@H](C)C6)C5)CC4)ncc3Cl)ccc2n(C(C)C)c1=O (single isomer, unassigned) [Compound 31]	< 10	
CNC(=O)COc1cc2cc(Nc3nc(N4CCC(O[C@H]5C[C@H](N6CCC(c7cccc8c7n(C)c(=O)n8C7CCC(=O)NC7=O)CC6)C5)CC4)ncc3Cl)ccc2n(C(C)C)c1=O (stereo partly drawn) [Compound 1, 2-({6-[(5-chloro-2-{4-[(1r,3r)-3-{4-[1-(2,6-dioxopiperidin-3-yl)-3-methyl-2-oxo-2,3-dihydro-1H-1,3-benzodiazol-4-yl]piperidin-1-yl}cyclobutoxy]piperidin-1-yl}pyrimidin-4-yl)amino]-2-oxo-1-(propan-2-yl)-1,2-dihydroquinolin-3-yl}oxy)-N-methylacetamide]	< 10	≥ 70
